# Measured values from US9073931B2, “Liver X receptor modulators” (Vitae Pharmaceuticals, Inc., priority 2012, dated 2015).
# Like-named read-outs stand apart in the source and are kept apart here.
# Assays:
# LXR β LBD protein = LXR β LBD protein (Homo sapiens (Human), UniProt P55055); test: LXR β radioligand binding assay (SPA, [3H]T0901317 competition); settings: competition with 15 nM [3H]T0901317, LXRβ LBD
# LBD of LXRβ [1] = biological target: T1, LBD of LXRβ (Homo sapiens (Human), UniProt P55055); test: cell-based
# T1 sequence (P55055 222-460): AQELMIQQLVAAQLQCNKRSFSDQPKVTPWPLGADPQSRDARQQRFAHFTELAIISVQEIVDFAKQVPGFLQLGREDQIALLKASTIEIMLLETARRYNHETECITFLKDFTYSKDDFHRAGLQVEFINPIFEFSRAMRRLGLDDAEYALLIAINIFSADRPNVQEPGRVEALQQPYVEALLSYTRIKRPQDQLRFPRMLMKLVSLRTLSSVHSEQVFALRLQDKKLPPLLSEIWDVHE
# LBD of LXRβ [2] = biological target: T1, LBD of LXRβ
# Sequence of LXR β LBD protein (P55055 222-460): as above
SMILES,Ki (LXR β LBD protein) [nM],EC50 (LBD of LXRβ [1]) [nM],EC50 (LBD of LXRβ [2]) [nM]
"Cc1cnc(N2CCn3c(nc4cc(CO)c(S(C)(=O)=O)cc43)[C@H]2C(C)C)nc1C(F)(F)F [Compound E21, (R)-(1-isopropyl-2-(5-methyl-4-(trifluoromethyl)pyrimidin-2-yl)-7-(methylsulfonyl)-1,2,3,4-tetrahydrobenzo[4,5]imidazo[1,2-a]pyrazin-8-yl)methanol]",10,10,
"CC(C)C1c2cc3cc(CO)c(S(C)(=O)=O)cc3n2CCN1c1ncc(C(C)(C)O)c(C(F)(F)F)n1 (single isomer, unassigned) [Compound E27b, 2-(2-(8-(hydroxymethyl)-1-isopropyl-7-(methylsulfonyl)-3,4-dihydropyrazino[1,2-a]indol-2(1H)-yl)-4-(trifluoromethyl)pyrimidin-5-yl)propan-2-ol]",712,,1440
"CC(O)c1cnc(N2CCn3c(cc4ccc(S(C)(=O)=O)cc43)C2C(C)C)nc1C(F)(F)F (single isomer, unassigned) [Compound E24b, 1-(2-(1-isopropyl-7-(methylsulfonyl)-3,4-dihydropyrazino[1,2-a]indol-2(1H)-yl)-4-(trifluoromethyl)pyrimidin-5-yl)ethanol]",20,,150
"CC(C)[C@@H]1c2nc3cc(CO)c(S(C)(=O)=O)cc3n2CCN1c1ncc(C(C)(C)O)c(C(F)(F)F)n1 (single isomer, unassigned) [Compound E7a]",14,23,
"CC(C)[C@@H]1c2cc3ccc(S(C)(=O)=O)cc3n2CCN1c1ncc(CO)c(C(F)(F)F)n1 [Compound E25a, (R)-(2-(1-isopropyl-7-(methylsulfonyl)-3,4-dihydropyrazino[1,2-a]indol-2(1H)-yl)-4-(trifluoromethyl)pyrimidin-5-yl)methanol]",6,,83
"CC(C)[C@@H]1c2nc3cc(CO)c(S(C)(=O)=O)cc3n2CCN1c1ncc(C(=O)N(C)C)c(C(F)(F)F)n1 (single isomer, unassigned) [Compound E17a]",220,> 20000,
"CC(C)[C@H]1c2cc3ccc(S(C)(=O)=O)cc3n2CCN1c1ncc(C(C)(C)O)c(C(F)(F)F)n1 [Compound E23b, (S)-2-(2-(1-isopropyl-7-(methylsulfonyl)-3,4-dihydropyrazino[1,2-a]indol-2(1H)-yl)-4-(trifluoromethyl)pyrimidin-5-yl)propan-2-ol]",2440,,1340
"CC(=O)c1cnc(N2CCn3c(cc4ccc(S(C)(=O)=O)cc43)[C@H]2C(C)C)nc1C(F)(F)F [Compound E22a, (R)-1-(2-(1-isopropyl-7-(methylsulfonyl)-3,4-dihydropyrazino[1,2-a]indol-2(1H)-yl)-4-(trifluoromethyl)pyrimidin-5-yl)ethanone]",12,,107
"CC(C)[C@@H]1c2nc3cc(CO)c(S(C)(=O)=O)cc3n2CCN1c1ncc(C(N)=O)c(C(F)(F)F)n1 (single isomer, unassigned) [Compound E15a]",240,> 20000,
"CC(C)[C@H]1c2nc3cc(CO)c(S(C)(=O)=O)cc3n2CCN1c1ncc(C(N)=O)c(C(F)(F)F)n1 (single isomer, unassigned) [Compound E15b]",> 2500,> 20000,
"CC(=O)c1cnc(N2CCn3c(cc4ccc(S(C)(=O)=O)cc43)[C@@H]2C(C)C)nc1C(F)(F)F [Compound E22b, (S)-1-(2-(1-isopropyl-7-(methylsulfonyl)-3,4-dihydropyrazino[1,2-a]indol-2(1H)-yl)-4-(trifluoromethyl)pyrimidin-5-yl)ethanone]",> 2500,,11500
"CC(C)[C@H]1c2cc3ccc(S(C)(=O)=O)cc3n2CCN1c1ncc(CO)c(C(F)(F)F)n1 [Compound E25b, (S)-(2-(1-isopropyl-7-(methylsulfonyl)-3,4-dihydropyrazino[1,2-a]indol-2(1H)-yl)-4-(trifluoromethyl)pyrimidin-5-yl)methanol]",> 2500,,10800
"CC(C)[C@@H]1c2cc3ccc(S(C)(=O)=O)cc3n2CCN1c1ncc(C(C)(C)O)c(C(F)(F)F)n1 [Compound E23a, (R)-2-(2-(1-isopropyl-7-(methylsulfonyl)-3,4-dihydropyrazino[1,2-a]indol-2(1H)-yl)-4-(trifluoromethyl)pyrimidin-5-yl)propan-2-ol]",21,,306
"CC(C)C1c2cc3cc(CO)c(S(C)(=O)=O)cc3n2CCN1c1ncc(C(C)(C)O)c(C(F)(F)F)n1 (single isomer, unassigned) [Compound E27a, 2-(2-(8-(hydroxymethyl)-1-isopropyl-7-(methylsulfonyl)-3,4-dihydropyrazino[1,2-a]indol-2(1H)-yl)-4-(trifluoromethyl)pyrimidin-5-yl)propan-2-ol]",2,,10
"CC(=O)c1cnc(N2CCn3c(cc4cc(CO)c(S(C)(=O)=O)cc43)C2C(C)C)nc1C(F)(F)F (racemic) [Compound E26, (±)-1-(2-(8-(hydroxymethyl)-1-isopropyl-7-(methylsulfonyl)-3,4-dihydropyrazino[1,2-a]indol-2(1H)-yl)-4-(trifluoromethyl)pyrimidin-5-yl)ethanone]",7,16,
"CC(C)C1c2nc3ccc(S(C)(=O)=O)cc3n2CCN1c1ncc(CO)c(C(F)(F)F)n1 (racemic) [Compound E4, (2-(1-isopropyl-7-(methylsulfonyl)-3,4-dihydrobenzo[4,5]imidazo[1,2-a]pyrazin-2(1H)-yl)-4-(trifluoromethyl)pyrimidin-5-yl)methanol]",137,293,
"CC(=O)c1cnc(N2CCn3c(nc4ccc(S(C)(=O)=O)cc43)C2C(C)C)nc1C(F)(F)F (racemic) [Compound E1, 1-(2-(1-isopropyl-7-(methylsulfonyl)-3,4-dihydrobenzo[4,5]imidazo[1,2-a]pyrazin-2(1H)-yl)-4-(trifluoromethyl)pyrimidin-5-yl)ethanone]",191,350,
"CC(O)c1cnc(N2CCn3c(cc4ccc(S(C)(=O)=O)cc43)C2C(C)C)nc1C(F)(F)F (single isomer, unassigned) [Compound E24c, 1-(2-(1-isopropyl-7-(methylsulfonyl)-3,4-dihydropyrazino[1,2-a]indol-2(1H)-yl)-4-(trifluoromethyl)pyrimidin-5-yl)ethanol]",1690,,18200
"COC(=O)c1cnc(N2CCn3c(nc4cc(CO)c(S(C)(=O)=O)cc43)[C@H]2C(C)C)nc1C(F)(F)F [Compound E30, (R)-methyl 2-(8-(hydroxymethyl)-1-isopropyl-7-(methylsulfonyl)-3,4-dihydrobenzo[4,5]imidazo[1,2-a]pyrazin-2(1H)-yl)-4-(trifluoromethyl)pyrimidine-5-carboxylate]",10,17,
"CCCC(O)c1cnc(N2CCn3c(nc4cc(CO)c(S(C)(=O)=O)cc43)[C@H]2C(C)C)nc1C(F)(F)F (single isomer, unassigned) [Compound E11a]",14,68,
"CC(C)[C@H]1c2nc3cc(CO)c(S(C)(=O)=O)cc3n2CCN1c1ncc(C(=O)N(C)C)c(C(F)(F)F)n1 (single isomer, unassigned) [Compound E17b]",> 2500,4900,
"CC(O)c1cnc(N2CCn3c(cc4ccc(S(C)(=O)=O)cc43)C2C(C)C)nc1C(F)(F)F (single isomer, unassigned) [Compound E24a, 1-(2-(1-isopropyl-7-(methylsulfonyl)-3,4-dihydropyrazino[1,2-a]indol-2(1H)-yl)-4-(trifluoromethyl)pyrimidin-5-yl)ethanol]",7,,134
"CC(C)C1c2nc3ccc(S(C)(=O)=O)cc3n2CCN1c1ncc(C(C)(C)O)c(C(F)(F)F)n1 (racemic) [Compound E2, 2-(2-(1-isopropyl-7-(methylsulfonyl)-3,4-dihydrobenzo[4,5]imidazo[1,2-a]pyrazin-2(1H)-yl)-4-(trifluoromethyl)pyrimidin-5-yl)propan-2-ol]",176,377,
"CC(C)[C@H]1c2nc3cc(CO)c(S(C)(=O)=O)cc3n2CCN1c1ncc(CO)c(C2CC2)n1 (single isomer, unassigned) [Compound E20b]",> 2500,> 20000,
"CCOC(=O)c1cnc(N2CCn3c(cc4cc(CO)c(S(C)(=O)=O)cc43)C2C(C)C)nc1C(F)(F)F (racemic) [Compound E28, (±)-Ethyl 2-(8-(hydroxymethyl)-1-isopropyl-7-(methylsulfonyl)-3,4-dihydropyrazino[1,2-a]indol-2(1H)-yl)-4-(trifluoromethyl)pyrimidine-5-carboxylate]",5,72,
"CC(C)[C@H]1c2nc3cc(CO)c(S(C)(=O)=O)cc3n2CCN1c1ncc(C(C)(C)O)c(C(F)(F)F)n1 (single isomer, unassigned) [Compound E7b]",> 2500,2180,
"COc1nc(N2CCn3c(nc4cc(CO)c(S(C)(=O)=O)cc43)[C@H]2C(C)C)ncc1C(F)(F)F [Compound E18, (R)-(1-isopropyl-2-(4-methoxy-5-(trifluoromethyl)pyrimidin-2-yl)-7-(methylsulfonyl)-1,2,3,4-tetrahydrobenzo[4,5]imidazo[1,2-a]pyrazin-8-yl)methanol]",8,24,
"CCCC(O)c1cnc(N2CCn3c(nc4cc(CO)c(S(C)(=O)=O)cc43)[C@H]2C(C)C)nc1C(F)(F)F (single isomer, unassigned) [Compound E11b]",23,103,
"CCOC(=O)c1cnc(N2CCn3c(nc4cc(CO)c(S(C)(=O)=O)cc43)[C@H]2C(C)C)nc1C(F)(F)F [Compound E12, (R)-ethyl 2-(8-(hydroxymethyl)-1-isopropyl-7-(methylsulfonyl)-3,4-dihydrobenzo[4,5]imidazo[1,2-a]pyrazin-2(1H)-yl)-4-(trifluoromethyl)pyrimidine-5-carboxylate]",6,50,
"CC(C)[C@@H]1c2nc3cc(CO)c(S(C)(=O)=O)cc3n2CCN1c1ncc(CO)c(C2CC2)n1 (single isomer, unassigned) [Compound E20a]",110,> 20000,
